Reference: the supplement of paper PMC10307832

Tests used:
Assay in all cases: relative viability (nuclei count vs DMSO), 5 days (fraction); higher = more cells survive
[1] = system: LCLC-97TM1
How it was run: (§1)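 Lung cancer cell lines were pin-tool dosed in 1536-well plates on the day after seeding, with either a lone drug or a fixed anchor-drug dose plus five library-drug doses (not always all listed) in √10 steps. Nuclei were counted on 4× images after 5 days. Relative viability is the ratio of treated-well to vehicle-well nuclei counts, with each value a median of duplicate plates.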

[2] = system: NCI-H2085
How it was run: as §1

[3] = system: NCI-H1944
How it was run: as §1

[4] = system: NCI-H3122
How it was run: as §1

[5] = system: NCI-H1666
How it was run: as §1

[6] = system: NCI-H441
How it was run: as §1

[7] = system: NCI-H2087
How it was run: as §1

[8] = system: NCI-H2126
How it was run: as §1

[9] = system: EPLC-272H
How it was run: as §1

[10] = system: COR-L23
How it was run: as §1

[11] = system: HCC-78
How it was run: as §1

[12] = system: LXF-289
How it was run: as §1

[13] = system: NCI-H1793
How it was run: as §1

[14] = system: ChaGo-K-1
How it was run: as §1

[15] = system: PC-14
How it was run: as §1

[16] = system: HOP-62
How it was run: as §1

[17] = system: NCI-H1437
How it was run: as §1

[18] = system: NCI-H1650
How it was run: as §1

[19] = system: HARA
How it was run: as §1

[20] = system: NCI-H661
How it was run: as §1

[21] = system: NCI-H1395
How it was run: as §1

[22] = system: H3255
How it was run: as §1

CCNC(=O)c1noc(-c2cc(C(C)C)c(O)cc2O)c1-c1ccc(CN2CCOCC2)cc1 [Luminespib] + CC(=O)c1c(C)c2cnc(Nc3ccc(N4CCNCC4)cn3)nc2n(C2CCCC2)c1=O [Palbociclib] (partner 0.5 µM)
relative viability ([1]; first compound 0.002 µM): 0.214
relative viability ([1]; first compound 0.006325 µM): 0.227
relative viability ([1]; first compound 0.06325 µM): 0.248
relative viability ([1]; first compound 0.2 µM): 0.205
relative viability ([2]; first compound 0.002 µM): 0.447
relative viability ([2]; first compound 0.006325 µM): 0.434
relative viability ([2]; first compound 0.02 µM): 0.453
relative viability ([2]; first compound 0.06325 µM): 0.388
relative viability ([2]; first compound 0.2 µM): 0.263
relative viability ([3]; first compound 0.002 µM): 0.309
relative viability ([3]; first compound 0.006325 µM): 0.389
relative viability ([3]; first compound 0.02 µM): 0.249
relative viability ([3]; first compound 0.06325 µM): 0.316
relative viability ([3]; first compound 0.2 µM): 0.303
relative viability ([4]; first compound 0.002 µM): 0.173
relative viability ([4]; first compound 0.006325 µM): 0.233
relative viability ([4]; first compound 0.02 µM): 0.173
relative viability ([4]; first compound 0.06325 µM): 0.197
relative viability ([4]; first compound 0.2 µM): 0.196
relative viability ([5]; first compound 0.002 µM): 0.647
relative viability ([5]; first compound 0.006325 µM): 0.67
relative viability ([5]; first compound 0.02 µM): 0.673
relative viability ([5]; first compound 0.06325 µM): 0.705
relative viability ([5]; first compound 0.2 µM): 0.655
relative viability ([6]; first compound 0.002 µM): 0.243
relative viability ([6]; first compound 0.006325 µM): 0.215
relative viability ([6]; first compound 0.02 µM): 0.143
relative viability ([6]; first compound 0.06325 µM): 0.102
relative viability ([6]; first compound 0.2 µM): 0.1
relative viability ([7]; first compound 0.002 µM): 0.205
relative viability ([7]; first compound 0.006325 µM): 0.232
relative viability ([7]; first compound 0.02 µM): 0.185
relative viability ([7]; first compound 0.06325 µM): 0.11
relative viability ([7]; first compound 0.2 µM): 0.114
relative viability ([8]; first compound 0.002 µM): 0.337
relative viability ([8]; first compound 0.006325 µM): 0.325
relative viability ([8]; first compound 0.06325 µM): 0.351
relative viability ([8]; first compound 0.2 µM): 0.393
relative viability ([9]; first compound 0.002 µM): 0.285
relative viability ([9]; first compound 0.006325 µM): 0.317
relative viability ([9]; first compound 0.02 µM): 0.284
relative viability ([9]; first compound 0.06325 µM): 0.311
relative viability ([9]; first compound 0.2 µM): 0.0905
relative viability ([10]; first compound 0.002 µM): 0.343
relative viability ([10]; first compound 0.006325 µM): 0.274
relative viability ([10]; first compound 0.02 µM): 0.26
relative viability ([10]; first compound 0.06325 µM): 0.0657
relative viability ([10]; first compound 0.2 µM): 0.071
relative viability ([11]; first compound 0.002 µM): 0.461
relative viability ([11]; first compound 0.02 µM): 0.467
relative viability ([11]; first compound 0.06325 µM): 0.51
relative viability ([11]; first compound 0.2 µM): 0.427
relative viability ([12]; first compound 0.002 µM): 0.582
relative viability ([12]; first compound 0.006325 µM): 0.569
relative viability ([12]; first compound 0.02 µM): 0.601
relative viability ([12]; first compound 0.06325 µM): 0.574
relative viability ([12]; first compound 0.2 µM): 0.535
relative viability ([13]; first compound 0.002 µM): 0.306
relative viability ([13]; first compound 0.006325 µM): 0.334
relative viability ([13]; first compound 0.02 µM): 0.211
relative viability ([13]; first compound 0.06325 µM): 0.151
relative viability ([13]; first compound 0.2 µM): 0.165
relative viability ([14]; first compound 0.002 µM): 0.813
relative viability ([14]; first compound 0.006325 µM): 0.888
relative viability ([14]; first compound 0.02 µM): 0.963
relative viability ([14]; first compound 0.06325 µM): 0.925
relative viability ([14]; first compound 0.2 µM): 0.82
relative viability ([15]; first compound 0.002 µM): 0.541
relative viability ([15]; first compound 0.006325 µM): 0.367
relative viability ([15]; first compound 0.02 µM): 0.315
relative viability ([15]; first compound 0.06325 µM): 0.0535
relative viability ([15]; first compound 0.2 µM): 0.0542
relative viability ([16]; first compound 0.002 µM): 0.451
relative viability ([16]; first compound 0.006325 µM): 0.449
relative viability ([16]; first compound 0.02 µM): 0.594
relative viability ([16]; first compound 0.06325 µM): 0.384
relative viability ([16]; first compound 0.2 µM): 0.235
relative viability ([17]; first compound 0.002 µM): 0.34
relative viability ([17]; first compound 0.006325 µM): 0.306
relative viability ([17]; first compound 0.02 µM): 0.309
relative viability ([17]; first compound 0.06325 µM): 0.273
relative viability ([17]; first compound 0.2 µM): 0.22
relative viability ([18]; first compound 0.002 µM): 0.305
relative viability ([18]; first compound 0.006325 µM): 0.302
relative viability ([18]; first compound 0.02 µM): 0.168
relative viability ([18]; first compound 0.06325 µM): 0.106
relative viability ([18]; first compound 0.2 µM): 0.127
relative viability ([19]; first compound 0.002 µM): 0.221
relative viability ([19]; first compound 0.006325 µM): 0.221
relative viability ([19]; first compound 0.02 µM): 0.213
relative viability ([19]; first compound 0.06325 µM): 0.253
relative viability ([19]; first compound 0.2 µM): 0.11
relative viability ([20]; first compound 0.002 µM): 0.427
relative viability ([20]; first compound 0.006325 µM): 0.396
relative viability ([20]; first compound 0.02 µM): 0.315
relative viability ([20]; first compound 0.06325 µM): 0.309
relative viability ([20]; first compound 0.2 µM): 0.322
relative viability ([21]; first compound 0.002 µM): 0.645
relative viability ([21]; first compound 0.006325 µM): 0.631
relative viability ([21]; first compound 0.02 µM): 0.498
relative viability ([21]; first compound 0.06325 µM): 0.338
relative viability ([21]; first compound 0.2 µM): 0.344
relative viability ([22]; first compound 0.002 µM): 0.325
relative viability ([22]; first compound 0.006325 µM): 0.304
relative viability ([22]; first compound 0.02 µM): 0.308
relative viability ([22]; first compound 0.06325 µM): 0.281
relative viability ([22]; first compound 0.2 µM): 0.296
